Laboratory results: publication PMC7198766, “Structure-Activity Studies on the Hypertrehalosemic Hormone II of the Stick Insect Carausius morosus (Phasmatodea): Carbohydrate-Mobilization and Cardio-Stimulatory Activities” (Frontiers in Physiology, 2020)
Where “and” joins values, the source holds several entries; their conditions need not be identical. Equal values may be shown once.

Key:
[1] = system: heart of neck-ligated Carausius morosus; assay: Semi-exposed heart bioassay (heart beat rate); format: in vivo; conditions: for % Activity relative to the effect of Carmo-HrTH-II (myotropic) / Heart rate, Difference: 20 pmol peptide in 150 μl; for % Activity relative to the effect of Carmo-HrTH-II (myotropic): heart rate increase relative to Carmo-HrTH-II = 100, NS = no significant increase; for Heart rate, Post-application: after application of 20 pmol peptide in 150 μl saline, average of first four counts; for Heart rate, Post-application / Heart rate, Pre-application: neck-ligated stick insects; for Heart rate, Pre-application: in saline before application, semi-exposed heart; for Heart rate, Difference: post- minus pre-application
Description: The semi-exposed heart bioassay was carried out as described ([Marco et al., 2018]) with adult stick insects between 1 and 2 months old that were ligated at the neck. Briefly, a ventral incision of the abdomen exposed the ventral cavity with the internal organs; a few drops of stick insect saline (pH 6.6; 15 mM NaCl, 18 mM KCl, 7.5 mM CaCl2, 2 mM HEPES, 50 mM MgCl2, and 184 mM glucose according to [Ejaz and Lange, 2008]) were added to the exposed part. The semi-isolated heart preparation was viewed with a dissecting microscope (12-fold magnification), and the number of observed heart beats (contractions of the heart muscle) was counted during a fixed period using a manual tally counter and a timer. Once the heart had stabilized, saline was replaced with the test solution. For this the peptide stock solution of 5 pmol μl^–1 was diluted with stick insect saline to the desired concentration and a final volume of 150 μl was used for each test.
Heart rates under normal saline served as controls. The change in heart rate after the application of the test solution was calculated as an average of the first four counts and was compared to the average heart rates counted in saline before the application of the test solution. This comparison of change in heart rates was done for all the peptides tested.

Blaberus discoidalis = system: Blaberus discoidalis; set-up: method as in Hayes and Keeley, 1990; conditions: in vivo assay, cockroach B. discoidalis; ref Hayes and Keeley, 1990; cited from earlier work
[2] = system: heart of neck-ligated Carausius morosus; set-up: method as in Marco et al., 2018; conditions: ref Marco et al., 2018, cited from earlier work
[3] = system: ligated 6th instar Indian stick insects (Carausius morosus); assay: Carbohydrate-mobilization (hypertrehalosemic) in vivo assay; conditions: for % Activity relative to the effect of Carmo-HrTH-II (metabolic): 20 pmol peptide injected, carbohydrate increase relative to Carmo-HrTH-II = 100, NS = no significant increase; for Hemolymph carbohydrates, 90 min: 90 min after injection of 20 pmol peptide in 10 μl; for Hemolymph carbohydrates, 90 min / Hemolymph carbohydrates, Difference: neck-ligated 6th instar nymphs; for Hemolymph carbohydrates, Difference: 90 min minus 0 min, 20 pmol peptide in 10 μl injected; for Hemolymph carbohydrates, 0 min: before injection (0 min), 2 h after neck ligation, group later given 20 pmol peptide in 10 μl, 6th instar nymphs
Description: Sixth instar nymphs that were 1–2 days before molting were neck-ligated and used in the hypertrehalosemic in vivo assay as described in detail by [Gäde and Lohr (1982)]. Stock peptide solutions (5 pmol μl^–1) were diluted with distilled water to the desired concentration in 10 μl, which was injected into the stick insect nymphs.
In the first series of experiments, various doses of synthetic Carmo-HrTH-II and corpora cardiaca (CC) extract of C. morosus were used to determine the maximal hypertrehalosemic response of C. morosus. Hemolymph samples were taken from 17 to 18 days old 6th instar nymphs 2 h after they were neck-ligated and then 90 min after either CC extract or synthetic Carmo-HrTH-II was injected. Ligated nymphs injected with distilled water served as controls for handling stress. As depicted in Figures 1A,B, various doses of both Carmo-HrTH-II and CC extract increased the level of carbohydrates in the hemolymph in a dose-dependent manner. A dose of 0.04 pmol of synthetic Carmo-HrTH-II and the equivalent of 0.005 pairs of corpora cardiaca (pCC) were sufficient to give significant increases in hemolymph carbohydrates (p < 0.05). […] Doses of 0.1–0.5 pCC gave an average increase of 5.6 ± 0.6 mg carbohydrates ml^–1 hemolymph (Figure 1B); again, statistical analyses reveal no significant difference between the effect of these doses (p > 0.05).
Based on these pilot experiments, we selected a dose of 20 pmol for testing the analogs of Carmo-HrTH-II since such a dose of our lead compound, Carmo-HrTH-II had achieved maximal hypertrehalosemic activity.

Locusta migratoria = system: Locusta migratoria; set-up: method as in Gäde, 1990; conditions: in vivo assay, L. migratoria; ref Gäde, 1990; cited from earlier work
Manduca sexta = system: Manduca sexta; set-up: method as in Fox and Reynolds, 1991; Ziegler et al., 1991; conditions: in vivo assay, ref Fox and Reynolds, 1991, Ziegler et al.; cited from earlier work
Periplaneta americana = system: Periplaneta americana; set-up: method as in Gäde, 1990; conditions: in vivo assay, P. americana; ref Gäde, 1990; cited from earlier work

Molecule	% Activity relative to the effect of Carmo-HrTH-II (myotropic) [1] [%]	Heart rate, Post-application [1] [beats min^−1]	Heart rate, Pre-application [1]	Heart rate, Difference [1] [beats min^−1]	Fold less active than the endogenous Bladi-HrTH (Blaberus discoidalis)	Doses that increased the heart beat rate significantly and maximally ([2]; ligated stick insects, synthetic peptide)	% Activity relative to the effect of Carmo-HrTH-II (metabolic) [3] [%]	Hemolymph carbohydrates, 90 min [3] [mg/mL]	Hemolymph carbohydrates, Difference [3] [mg/mL]	Hemolymph carbohydrates, 0 min [3] [mg/mL]	Average increase of hemolymph carbohydrates ([3]; doses of 7.5–60 pmol (plateau, no significant difference between doses), 90 min) [mg ml^–1]	Dose sufficient to give significant increases in hemolymph carbohydrates ([3]; synthetic peptide injected, 17-18 days old ligated 6th instar nymphs, 90 min, p < 0.05) [pmol]	Activity relative to the endogenous decapeptide Locmi-AKH-I (Locusta migratoria)	Activity relative to the endogenous nonapeptide Manse-AKH (Manduca sexta)	Activity relative to the endogenous octapeptides Peram-CAH-I and -II (Periplaneta americana)	Effect on contraction of the heart ([2]; C. morosus heart, dose-dependent)
pGlu-Leu-Thr-Phe-Thr-Pro-Asn-Trp-Gly-Thr amide [Carmo-HrTH-II, reference compound]	100	53 ± 5	41 beats min^−1 and 41 ± 4 beats min^−1	12 ± 5	more than 300 fold	above 6.67 × 10^–8 M	100	14.9 ± 1.9	5.4 ± 1.1	9.4 ± 1.5	5.2 ± 0.4	0.04	only slightly less active	as, or slightly more active than the endogenous nonapeptide Manse-AKH	more or less as active	
NCC(O)c1ccc(O)cc1 (centres unmarked) [octopamine]																inhibits the contraction of the heart
[N-Ac]Ala-Leu-Thr-Phe-Thr-Pro-Asn-Trp-Gly-Thr amide [Carmo-HrTH-II: [N-Ac]Ala^1]		39 ± 6	39 ± 6 beats min^−1	0 ± 0			28	10.6 ± 2.0	1.5 ± 1.1	9.0 ± 1.3						
pGlu-Leu-Thr-Phe-Thr-Ala-Asn-Trp-Gly-Thr amide [Ala^6-Carmo-HrTH-II]		43 ± 5	43 ± 5 beats min^−1	0 ± 0				11.1 ± 0.9	1.6 ± 1.1	9.5 ± 1.2						
pGlu-Leu-Ala-Phe-Thr-Pro-Asn-Trp-Gly-Thr amide [Ala^3-Carmo-HrTH-II]	16	40 ± 6	38 ± 6 beats min^−1	2 ± 1				11.1 ± 1.8	0.8 ± 1.6	10.3 ± 2.4						
pGlu-Leu-Asn-Phe-Thr-Pro-Asn-Trp-Gly-Thr amide [Locmi-AKH-I, naturally-occurring AKH decapeptide bioanalog, reference compound]	25	43 ± 4	40 ± 4 beats min^−1	3 ± 1			19	9.9 ± 1.2	1.0 ± 1.2	8.9 ± 1.3						
